Experimental data from US9018208B2, “Heterocycles as potassium channel modulators” (Icagen Inc., priority 2007, dated 2015).
Read-outs that look alike come from different tables or passages of the source.

Test system: SH-SY5Y M-currents (KCNQ2, KCNQ3 and KCNQ5)
Experiment: SH-SY5Y native cell line FLIPR assay (voltage-sensitive dye DiBAC)
Format: cell-based, mouse neuroblastoma, rat glioma hybrid cell line
Details: SH-SY5Y native cell line, read-out: SH-SY5Y EC50
Summary of the method: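 Response is peak DiBAC fluorescence change, normalised to the maximum from a positive control agent, sampled every 30 s over 25 min. Before compound addition, SH-SY5Y cells differentiated with PGE1 plus isomethylbutylxanthine were dye-loaded for 1 h in EBSS with […] DiBAC.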

Row | Molecule | EC50 (FLIPR assay, Table 2) [nM] | other results
1 | CC1(CC(=O)Nc2nc3ccc(C(F)(F)F)cn3c2C2CCCCC2)CCCC1 [Compound 47, N-(3-cyclohexyl-6-(trifluoromethyl)imidazo[1,2-a]pyridin-2-yl)-2-(1-methylcyclopentyl)acetamide] | – | EC50 (FLIPR assay, Table 1): < 500 nM
2 | O=C(Cc1ccc(F)cc1)Nc1nc2ccc(C(F)(F)F)cn2c1-c1ccc(F)cc1 [Compound 121, 2-(4-fluorophenyl)-N-(3-(4-fluorophenyl)-6-(trifluoromethyl)imidazo[1,2-a]pyridin-2-yl)acetamide] | < 500 | –
3 | O=C(CCOc1ccc(F)cc1)Nc1nc2ccc(F)cn2c1-c1ccc(OC(F)(F)F)cc1 [Compound 250, N-(6-fluoro-3-(4-(trifluoromethoxy)phenyl)imidazo[1,2-a]pyridin-2-yl)-3-(4-fluorophenoxy)propanamide] | 500 to 3000 | –
4 | Cc1ccc2nc(NC(=O)CC(C)(C)C)c(-c3ccc(F)cc3)n2c1 [Compound 167, N-(3-(4-fluorophenyl)-6-methylimidazo[1,2-a]pyridin-2-yl)-3,3-dimethylbutanamide] | < 500 | –
5 | CC(C)(C)CC(=O)Nc1nc2cc(C(F)(F)F)ccn2c1-c1ccc(F)cc1F [Compound 123, N-(3-(2,4-difluorophenyl)-7-(trifluoromethyl)imidazo[1,2-a]pyridin-2-yl)-3,3-dimethylbutanamide] | 500 to 3000 | –
6 | CC(C)(CC(=O)Nc1nc2ccc(C(F)(F)F)cn2c1C1CC1)C(F)(F)F [Compound 432, N-(3-cyclopropyl-6-(trifluoromethyl)imidazo[1,2-a]pyridin-2-yl)-4,4,4-trifluoro-3,3-dimethylbutanamide] | – | EC50 (FLIPR assay (Table 6)): < 500 nM
7 | O=C(COCc1ccccc1)Nc1nc2ccc(F)cn2c1-c1ccc(OC(F)(F)F)cc1 [Compound 237, 2-(benzyloxy)-N-(6-fluoro-3-(4-(trifluoromethoxy)phenyl)imidazo[1,2-a]pyridin-2-yl)acetamide] | 3000 to 10000 | –
8 | O=C(Nc1nc2ccc(F)cn2c1-c1ccc(OC(F)(F)F)cc1)C1CCCC1 [Compound 290, N-(6-fluoro-3-(4-(trifluoromethoxy)phenyl)imidazo[1,2-a]pyridin-2-yl)cyclopentanecarboxamide] | < 500 | –
9 | CC(C)(C)CC(=O)Nc1nc2ccc(F)cn2c1CC1CCCCC1 [Compound 66, N-(3-(cyclohexylmethyl)-6-fluoroimidazo[1,2-a]pyridin-2-yl)-3,3-dimethylbutanamide] | – | EC50 (FLIPR assay, Table 1): < 500 nM
10 | CC(=O)OCC(C)(C)CC(=O)Nc1nc2ccc(F)cn2c1-c1ccc(OC(F)(F)F)cc1 [Compound 191, 4-(6-fluoro-3-(4-(trifluoromethoxy)phenyl)imidazo[1,2-a]pyridin-2-ylamino)-2,2-dimethyl-4-oxobutyl acetate] | 3000 to 10000 | –
11 | O=C(Nc1nc2ccc(C(F)(F)F)nn2c1C1CCCC1)c1ccc(F)c(F)c1 [Compound 447, N-(3-cyclopentyl-6-(trifluoromethyl)imidazo[1,2-b]pyridazin-2-yl)-3,4,-difluorobenzamide] | – | EC50 (FLIPR assay (Table 6)): 500 to 3000 nM
12 | O=C(Nc1nc2ccc(F)cn2c1-c1ccc(OC(F)(F)F)c(F)c1)C1CCC1 [Compound 334, N-(6-fluoro-3-(3-fluoro-4-(trifluoromethoxy)phenyl)imidazo[1,2-a]pyridin-2-yl)cyclobutanecarboxamide] | 500 to 3000 | –
13 | CC(C)(C)CCC(=O)Nc1nc2ccc(F)cn2c1-c1nc2ccccc2s1 [Compound 372, N-(3-(benzo[d]thiazol-2-yl)-6-fluoroimidazo[1,2-a]pyridin-2-yl)-4,4-dimethylpentanamide] | – | EC50 (FLIPR assay (Table 3)): 500 to 3000 nM
14 | CC(C(=O)Nc1nc2ccc(F)cn2c1-c1ccc(OC(F)(F)F)cc1)C(C)(C)C (centres unmarked) [Compound 235, N-(6-fluoro-3-(4-(trifluoromethoxy)phenyl)imidazo[1,2-a]pyridin-2-yl)-2,3,3-trimethylbutanamide] | < 500 | –
15 | O=C(Nc1nc2ccc(F)cn2c1-c1cccc(Cl)c1)C1CCC1 [Compound 335, N-(3-(3-chlorophenyl)-6-fluoroimidazo[1,2-a]pyridin-2-yl)cyclobutanecarboxamide] | 500 to 3000 | –
16 | O=C(Cc1ccccc1)Nc1nc2ccc(F)cn2c1-c1cccc(Cl)c1 [Compound 155, N-(3-(3-chlorophenyl)-6-fluoroimidazo[1,2-a]pyridin-2-yl)-2-phenylacetamide] | < 500 | –
17 | CC(C)(C)CC(=O)Nc1nc2ccc(F)cn2c1Cc1ccc(C(F)(F)F)cc1 [Compound 28, N-(6-fluoro-3-(4-(trifluoromethyl)benzyl)imidazo[1,2-a]pyridin-2-yl)-3,3-dimethylbutanamide] | – | EC50 (FLIPR assay, Table 1): < 500 nM
18 | CC(=O)Nc1nc2ccc(C(F)(F)F)cn2c1CC(C)(C)C [Compound 62, N-(3-neopentyl-6-(trifluoromethyl)imidazo[1,2-a]pyridin-2-yl)acetamide] | – | EC50 (FLIPR assay, Table 1): 3000 to 10000 nM
19 | O=C(Cc1ccc(F)cc1)Nc1nc2ccc(F)cn2c1-c1nc2ccccc2s1 [Compound 379, N-(3-(benzo[d]thiazol-2-yl)-6-fluoroimidazo[1,2-a]pyridin-2-yl)-2-(4-fluorophenyl)acetamide] | – | EC50 (FLIPR assay (Table 3)): 500 to 3000 nM

Row | Molecule | EC50 (FLIPR assay, Table 2) [nM] | other results
20 | CC(C)CC(=O)Nc1nc2ccc(F)cn2c1-c1ccc(F)cc1 [Compound 133, N-(6-fluoro-3-(4-fluorophenyl)imidazo[1,2-a]pyridin-2-yl)-3-methylbutanamide] | 500 to 3000 | –
21 | CC(C)CCc1c(NC(=O)Cc2cccc(Cl)c2)nc2ccc(C(F)(F)F)cn12 [Compound 42, 2-(3-chlorophenyl)-N-(3-isopentyl-6-(trifluoromethyl)imidazo[1,2-a]pyridin-2-yl)acetamide] | – | EC50 (FLIPR assay, Table 1): < 500 nM
22 | CC(C)(C)CC(=O)Nc1nc2cc(C(F)(F)F)ccn2c1-c1ccccc1 [Compound 100, 3,3-dimethyl-N-(3-phenyl-7-(trifluoromethyl)imidazo[1,2-a]pyridin-2-yl)butanamide] | 500 to 3000 | –
23 | CC(C)(C)CC(=O)Nc1nc2ncc(F)cn2c1-c1cccc(C(F)(F)F)c1 [Compound 332, N-(6-fluoro-3-(3-(trifluoromethyl)phenyl)imidazo[1,2-a]pyrimidin-2-yl)-3,3-dimethylbutanamide] | 3000 to 10000 | –
24 | O=C(CCC1CCCC1)Nc1nc2ccc(F)cn2c1-c1ccc(C(F)(F)F)cc1 [Compound 220, 3-cyclopentyl-N-(6-fluoro-3-(4-(trifluoromethyl)phenyl)imidazo[1,2-a]pyridin-2-yl)propanamide] | < 500 | –
25 | O=C(CCC(F)(F)F)Nc1nc2ccc(F)cn2c1-c1ccc(F)cc1 [Compound 108, 4,4,4-trifluoro-N-(6-fluoro-3-(4-fluorophenyl)imidazo[1,2-a]pyridin-2-yl)butanamide] | 500 to 3000 | –
26 | 3-tert-butoxy-N-(6-fluoro-3-(4-(trifluoromethoxy)phenyl)imidazo yl)propanamide [Compound 261] | < 500 | –
27 | CC(CC(=O)Nc1nc2ccc(F)cn2c1-c1ccc(F)c(F)c1)C(F)(F)F (centres unmarked) [Compound 209, N-(3-(3,4-difluorophenyl)-6-fluoroimidazo[1,2-a]pyridin-2-yl)-4,4,4-trifluoro-3-methylbutanamide] | < 500 | –
28 | O=C(Nc1nc2ccc(F)cn2c1-c1cccc(C(F)(F)F)c1)C1CCCC1 [Compound 289, N-(6-fluoro-3-(3-(trifluoromethyl)phenyl)imidazo[1,2-a]pyridin-2-yl)cyclopentanecarboxamide] | < 500 | –
29 | CC(CC(=O)Nc1nc2ccc(F)cn2c1-c1cccc(OC(F)(F)F)c1)C(F)(F)F (centres unmarked) [Compound 276, 4,4,4-trifluoro-N-(6-fluoro-3-(3-(trifluoromethoxy)phenyl)imidazo[1,2-a]pyridin-2-yl)-3-methylbutanamide] | < 500 | –
30 | N#Cc1ccc2nc(NC(=O)Cc3ccc(F)cc3)c(-c3ccc(C(F)(F)F)cc3)n2c1 [Compound 260, N-(6-cyano-3-(4-(trifluoromethyl)phenyl)imidazo[1,2-a]pyridin-2-yl)-2-(4-fluorophenyl)acetamide] | < 500 | –
31 | CC(C)(C)CC(=O)Nc1nc2ccc(C(F)(F)F)cn2c1C1CCCC1 [Compound 48, N-(3-cyclopentyl-6-(trifluoromethyl)imidazo[1,2-a]pyridin-2-yl)-3,3-dimethylbutanamide] | – | EC50 (FLIPR assay, Table 1): < 500 nM
32 | O=C(Cc1ccc(F)c(F)c1)Nc1nc2ccc(F)cn2c1-c1ccc(OC(F)(F)F)cc1 [Compound 241, 2-(3,4-difluorophenyl)-N-(6-fluoro-3-(4-(trifluoromethoxy)phenyl)imidazo[1,2-a]pyridin-2-yl)acetamide] | < 500 | –
33 | O=C(Nc1nc2ccc(F)cn2c1-c1ccc(C(F)(F)F)cc1)OCc1ccccc1 [Compound 161, benzyl 6-fluoro-3-(4-(trifluoromethyl)phenyl)imidazo[1,2-a]pyridin-2-ylcarbamate] | 3000 to 10000 | –
34 | O=C(Cc1ccc(F)cc1)Nc1nc2ccccn2c1-c1ccc(F)cc1 [Compound 203, 2-(4-fluorophenyl)-N-(3-(4-fluorophenyl)imidazo[1,2-a]pyridin-2-yl)acetamide] | 500 to 3000 | –
35 | CC(C)(C)CC(=O)Nc1nc2ccc(F)cn2c1-c1ccccn1 [Compound 347, N-(6-fluoro-3-(pyridin-2-yl)imidazo[1,2-a]pyridin-2-yl)-3,3-dimethylbutanamide] | – | EC50 (FLIPR assay (Table 3)): 3000 to 10000 nM
36 | CC(C)(C)CC(=O)Nc1nc2ccc(F)cn2c1-c1ccc(F)nc1 [Compound 349, N-(6-fluoro-3-(6-fluoropyridin-3-yl)imidazo[1,2-a]pyridin-2-yl)-3,3-dimethylbutanamide] | – | EC50 (FLIPR assay (Table 3)): 500 to 3000 nM
37 | CC1(CC(=O)Nc2nc3ccc(F)cn3c2-c2nc3ccccc3s2)CCCC1 [Compound 375, N-(3-(benzo[d]thiazol-2-yl)-6-fluoroimidazo[1,2-a]pyridin-2-yl)-2-(1-methylcyclopentyl)acetamide] | – | EC50 (FLIPR assay (Table 3)): < 500 nM
38 | CC(C)(C)Cc1c(NC(=O)CC(F)(F)F)nc2ccc(C(F)(F)F)cn12 [Compound 60, 3,3,3-trifluoro-N-(3-neopentyl-6-(trifluoromethyl)imidazo[1,2-a]pyridin-2-yl)propanamide] | – | EC50 (FLIPR assay, Table 1): < 500 nM
